≈ marks a conversion by molar mass, not a printed value. Where “and” joins values, the source holds several entries; their conditions need not be identical. Equal values may be shown once.
Columns and labels:
Assay in all cases: ≥ marks a high value that may be exact or a test limit, other limits are often not marked, values filed in µg/mL are converted to µM
[1] = test system: Nocardia asteroides 090312
[2] = test system: Stenotrophomonas maltophilia 090223
[3] = test system: Candida albicans ATCC 2002
Acinetobacter baumannii = test system: Acinetobacter baumannii
Candida glabrata 0902 = test system: Candida glabrata 0902
Escherichia coli 1342 = test system: Escherichia coli 1342
[4] = test system: Staphylococcus aureus ATCC 2592
Proteus mirabilis 090223 = test system: Proteus mirabilis 090223
Klebsiella pneumoniae = test system: Klebsiella pneumoniae
[5] = test system: Staphylococcus aureus 1349
Aeromonas sobria 090223 = test system: Aeromonas sobria 090223
[6] = test system: Escherichia coli ATCC 25922
[7] = test system: Enterococcus faecium 1299
[8] = test system: Staphylococcus aureus 090223
[9] = test system: Salmonella typhimurium KCTC 1926
[10] = test system: Escherichia coli KCTC 1682
[11] = test system: Serratia marcescens KCTC 1299
[12] = test system: Aspergillus flavus KCTC 7375
[13] = test system: Trichosporon beigelii KCTC 7251
[14] = test system: Pseudomonas aeruginosa KCTC 1637
[15] = test system: Staphylococcus aureus KCTC 1621
[16] = test system: Bacillus subtilis KCTC 3068
[17] = test system: Fusarium oxysporum KCTC 6084
[18] = test system: Candida albicans KCTC 7121
[19] = test system: Streptococcus pyogenes KCTC 3096
[20] = test system: Pseudomonas aeruginosa ATCC 9027
[21] = test system: Escherichia coli ATCC 8739
[22] = test system: Staphylococcus aureus ATCC 6538
[23] = test system: Proteus vulgaris NCTC 4635
[24] = test system: Bacillus subtilis ATCC 9372
Staphylococcus sp. = test system: Staphylococcus sp.
[25] = test system: Bacillus subtilis AB91021
[26] = test system: Pseudomonas aeruginosa AB93066
[27] = test system: Bacillus thuringiensis AB92037
Escherichia coli AB94012 = test system: Escherichia coli AB94012
[28] = test system: Staphylococcus aureus AB94004
[29] = test system: Salmonella enterica serovar Minnesota R595
Escherichia coli DC2 = test system: Escherichia coli DC2
[30] = test system: Staphylococcus aureus 209P
[31] = test system: Staphylococcus aureus ATCC 25923
Candida albicans M9 = test system: Candida albicans M9
[32] = test system: Salmonella enterica subsp. enterica serovar Typhimurium LT2
[33] = test system: Salmonella typhimurium 1102
Escherichia coli K-12 = test system: Escherichia coli K-12
[34] = test system: Salmonella enterica serovar Minnesota 1114W
Escherichia coli = test system: Escherichia coli
Bacillus cereus = test system: Bacillus cereus
Staphylococcus aureus = test system: Staphylococcus aureus
Bacillus anthracis = test system: Bacillus anthracis

CC[C@H](C)[C@@H]1NC(=O)[C@H](CCSC)NC(=O)[C@@H](NC(=O)[C@H](CC(C)C)NC(=O)[C@H](CC(C)C)NC(=O)[C@H](CO)NC(=O)[C@@H]2CCCN2C(=O)[C@H](CC(C)C)NC(=O)[C@H](CC(C)C)NC(=O)[C@H](CCCCN)NC(=O)[C@@H](NC(=O)[C@@H](NC(=O)[C@H](C)NC(=O)CNC(=O)[C@H](CC(C)C)NC(=O)[C@H](C)NC(=O)[C@@H](N)Cc2ccccc2)C(C)C)[C@@H](C)O)CSSC[C@@H](C(=O)O)NC(=O)[C@H](CCCCN)NC(=O)[C@H](CCCN=C(N)N)NC(=O)[C@H]([C@@H](C)O)NC1=O [FALGAVTKLLPSLLCMITRKC]
MIC [1]: 8.25 µM (≈ 18.8 µg/mL)
MIC [2]: 4.12 µM (≈ 9.39 µg/mL)
MIC [3]: 1.01 µM (≈ 2.3 µg/mL)
MIC (Acinetobacter baumannii): 8.25 µM (≈ 18.8 µg/mL)
MIC (Candida glabrata 0902): ≥ 32.9 µM
MIC (Escherichia coli 1342): 4.12 µM (≈ 9.39 µg/mL)
MIC [4]: 8.25 µM (≈ 18.8 µg/mL)
MIC (Proteus mirabilis 090223): 8.25 µM (≈ 18.8 µg/mL)
MIC (Klebsiella pneumoniae): 32.9 µM (≈ 74.9 µg/mL)
MIC [5]: 16.5 µM (≈ 37.5 µg/mL)
MIC (Aeromonas sobria 090223): 8.25 µM (≈ 18.8 µg/mL)
MIC [6]: 32.9 µM (≈ 74.9 µg/mL)
MIC [7]: 2.06 µM (≈ 4.7 µg/mL)
MIC [8]: 2.06 µM (≈ 4.7 µg/mL)

CC[C@H](C)[C@H](NC(=O)[C@@H]1CCCN1C(=O)[C@H](CCCCN)NC(=O)[C@H](Cc1ccccc1)NC(=O)[C@H](CC(C)C)NC(=O)[C@H](Cc1cnc[nH]1)NC(=O)[C@H](CC(C)C)NC(=O)[C@H](C)NC(=O)[C@H](CCCCN)NC(=O)[C@H](CCCCN)NC(=O)[C@@H](N)Cc1ccccc1)C(=O)N[C@@H](CCCCN)C(=O)N[C@@H](CCCCN)C(=O)N[C@@H](Cc1ccccc1)C(=O)N[C@@H](CC(C)C)C(=O)N[C@@H](CCCCN)C(=O)N[C@@H](Cc1c[nH]c2ccccc12)C(=O)N[C@@H](CCCCN)C(N)=O [FKKALHLFKPIKKFLKWK]
MIC [9]: 3.13 µM (≈ 7.2 µg/mL)
MIC [10]: 6.25 µM (≈ 14.4 µg/mL)
MIC [11]: 6.25 µM (≈ 14.4 µg/mL)
MIC [12]: ≥ 50 µM
MIC [13]: 25 µM (≈ 57.5 µg/mL)
MIC [14]: 1.56 µM (≈ 3.59 µg/mL)
MIC [15]: 1.56 µM (≈ 3.59 µg/mL)
MIC [16]: 0.78 µM (≈ 1.79 µg/mL)
MIC [17]: ≥ 50 µM
MIC [18]: ≥ 50 µM
MIC [19]: 6.25 µM (≈ 14.4 µg/mL)

CC[C@H](C)[C@H](NC(=O)[C@@H](NC(=O)[C@H](CO)NC(=O)[C@H](C)NC(=O)[C@@H](NC(=O)[C@H](CCCCN)NC(=O)[C@H](CCCCN)NC(=O)[C@@H](NC(=O)[C@@H](NC(=O)[C@H](C)NC(=O)[C@H](Cc1ccccc1)NC(=O)[C@H](CC(C)C)NC(=O)CN)C(C)C)[C@@H](C)CC)C(C)C)C(C)C)C(=O)NCC(=O)O [GLFAVIKKVASVIG]
MIC [20]: 183 µM (≈ 256 µg/mL)
MIC [21]: ≥ 45.7 µM
MIC [22]: 22.8 µM (≈ 32 µg/mL)
MIC [23]: ≥ 183 µM
MIC [24]: 5.71 µM (≈ 8 µg/mL)

CC[C@H](C)[C@H](NC(=O)[C@H](CC(C)C)NC(=O)[C@H](CO)NC(=O)[C@@H]1CCCN1C(=O)[C@@H](NC(=O)[C@H](CC(C)C)NC(=O)CNC(=O)[C@H](Cc1ccccc1)NC(=O)[C@@H](N)CC(C)C)[C@@H](C)CC)C(=O)NCC(=O)NCC(=O)N[C@@H](CC(C)C)C(=O)N[C@H](C(=O)N[C@@H](CO)C(=O)N[C@@H](C)C(=O)N[C@@H](Cc1ccccc1)C(=O)N[C@@H](CCCCN)C(N)=O)C(C)C [LFGLIPSLIGGLVSAFK]
MIC (Staphylococcus sp.): 14.4 µM (≈ 25 µg/mL)
MIC [25]: 28.9 µM (≈ 50 µg/mL)
MIC [26]: ≥ 57.7 µM
MIC [27]: 14.4 µM (≈ 25 µg/mL)
MIC (Escherichia coli AB94012): ≥ 57.7 µM
MIC [28]: 14.4 µM (≈ 25 µg/mL)

CC[C@H](C)[C@@H]1NC(=O)CNC(=O)[C@H](CCCN=C(N)N)NC(=O)[C@H](Cc2ccc(O)cc2)NC(=O)[C@@H]2CSSC[C@H](NC1=O)C(=O)N[C@@H](Cc1ccc(O)cc1)C(=O)N[C@@H](CCCN=C(N)N)C(=O)N[C@@H](CCCCN)C(=O)N[C@H](C(=O)N[C@@H](CCCN=C(N)N)C(N)=O)CSSC[C@H](NC(=O)[C@H](Cc1c[nH]c3ccccc13)NC(=O)[C@@H](N)CCCN=C(N)N)C(=O)N[C@@H](Cc1ccccc1)C(=O)N[C@@H](CCCN=C(N)N)C(=O)N[C@@H](C(C)C)C(=O)N2 [RWCFRVCYRGICYRKCR]
MIC [29]: 0.705 µM (≈ 1.6 µg/mL)
MIC (Escherichia coli DC2): 0.707 µM (≈ 1.6 µg/mL)
MIC [22]: 5.66 µM (≈ 12.8 µg/mL)
MIC [30]: 2.78 µM (≈ 6.29 µg/mL)
MIC [31]: 5.51 µM and 2 µM
MIC (Candida albicans M9): 1.37 µM (≈ 3.09 µg/mL)
MIC [32]: 0.982 µM (≈ 2.22 µg/mL)
MIC [33]: 0.982 µM (≈ 2.22 µg/mL)
MIC (Escherichia coli K-12): 0.982 µM (≈ 2.22 µg/mL)
MIC [6]: 0.25 µM (≈ 0.566 µg/mL)
MIC [34]: 2.78 µM (≈ 6.29 µg/mL)

CC[C@H](C)[C@H](NC(=O)[C@H](Cc1cnc[nH]1)NC(=O)[C@@H](N)[C@@H](C)O)C(=O)N[C@@H](Cc1cnc[nH]1)C(=O)N[C@@H](CCSC)C(=O)N[C@@H](CC(N)=O)C(=O)N[C@@H](C)C(=O)N[C@@H](CCCN=C(N)N)C(=O)N[C@@H](CC(C)C)C(=O)N[C@@H](CC(C)C)C(=O)N[C@H](C(=O)N[C@@H](CCCN=C(N)N)C(=O)N[C@@H](CO)C(=O)N1CCC[C@H]1C(=O)N[C@@H](Cc1ccccc1)C(=O)N[C@H](C(=O)N[C@@H](CC(=O)O)C(=O)N1CCC[C@H]1C(=O)N[C@@H](CCC(N)=O)C(=O)N[C@@H](CC(C)C)C(=O)O)[C@@H](C)O)[C@@H](C)CC [THIHMNARLLIRSPFTDPQL]
MIC (Escherichia coli): > 108 µM
MIC (Bacillus cereus): ≥ 108 µM
MIC (Staphylococcus aureus): > 108 µM
MIC (Bacillus anthracis): ≥ 108 µM

From DBAASP
